Reference: US20200268703A1, “MEDICINE FOR TREATING ADVANCED OR RECURRENT CANCER PATIENT BEING NON-RESPONSIVE OR NON-TOLERANT TO STANDARD CHEMOTHERAPY AND INCURABLE AND UNRESECTABLE” (HYOGO COLLEGE OF MEDICINE, priority 2017, published 2020)
Where “and” joins values, the source holds several entries; their conditions need not be identical. Equal values may be shown once.

Test system: advanced or recurrent gastric cancer which is non-responsive or non-tolerant to standard chemotherapy and incurable and unresectable
Assay: Clinical trial of propagermanium in patients with advanced or recurrent gastric cancer (OS, PFS, lung metastasis imaging)
Assay type: in vivo, human
Conditions: for OS / PFS: 30 mg orally per day
Description: 30 mg of propagermanium [trade name: SEROCION (registered trademark), produced by SANWA KAGAKU KENKYUSHO CO., LTD.] was administered orally in three divided doses per day after meals to 13 patient cases (P-1 to P-13) who were diagnosed as advanced or recurrent gastric cancer which is non-responsive or non-tolerant to standard chemotherapy [gastric cancer treatment guideline fourth edition (edited by Japan Gastric cancer Association, revised in May 2014)] and incurable and unresectable, and a clinical trial was conducted with overall survival (hereinafter also referred to as “OS”) and progression-free survival (hereinafter also referred to as “PFS”) as evaluation items. This clinical trial was conducted under an approval of Ethics Committee of Hyogo College of Medicine (No. 1911). The ECOG performance status (hereinafter also referred to as “PS”), the OS, and the PFS of 13 patient cases are shown in Table 1.
On the other hand, in Hyogo College of Medicine Hospital from 2009 to 2011, in 62 cases which were diagnosed as advanced gastric cancer which is non-responsive or non-tolerant to standard chemotherapy and incurable and unresectable and for which palliative care (Best Supportive Care; hereinafter “BSC”) to reduce pain was provided, the median of OS from the time when a doctor explained BSC to the patient was 22 days.
13 Patient cases in which the propagermanium was administered and 62 patient cases in which the BSC was provided were divided into two groups of (A) 0 and 1 and (B) 2 and 3 according to PS thereof. In the two groups, medians of the OS in the propagermanium administration examples and BSC examples were compared. As a result, in the patient groups whose PS was (A) 0 and 1, the median of OS in the BSC examples was 23.5 days, whereas the median of OS in the propagermanium administration examples was 163 days. The survival time was extended approximately 7 times compared to the BSC examples. […] Accordingly, it was confirmed that the survival days were extended compared to the BSC examples.
In 13 patient cases in which the propagermanium was administered, mean values of OS were compared according to the presence and absence of the peritoneal metastasis (Table 2 and FIG. 4). As a result, the mean value of OS of 8 patient cases with the peritoneal metastasis was 81.1 days, whereas the mean value of OS of 5 patient cases without the peritoneal metastasis was 164.7 days. […] In addition, 13 patient cases in which the propagermanium was administered were divided into two groups of (C) 0 and 1 and (D) 2 and 3 according to the PS thereof. In the two groups, mean values of the OS were compared according to the presence or absence of the peritoneal metastasis (Table 2 and FIG. 4). As a result, in the patient group whose PS was (C) 0 and 1, the mean value of OS of 4 cases with the peritoneal metastasis was 139 days, whereas the mean value of OS of 3 cases without the peritoneal metastasis was 273 days. […] On the other hand, in the patient group whose PS was (D) 2 and 3, the mean value of OS of 4 cases with the peritoneal metastasis was 37.8 days, whereas the mean value of OS of 2 cases without the peritoneal metastasis was 56.3 days.

Q: propagermanium was tested. Which “Median of PFS” value (13 patient cases) did it give?
A: 49 days

Q: What about the “Median of OS” value (13 patient cases, BSC examples (62 cases) 22 days) of the same substance?
A: 73 days

Q: What about the “Kaplan Meier survival curves of OS versus BSC (FIG. 1)” value (13 propagermanium cases versus 62 BSC cases) of the same substance?
A: significant life prolongation effect

Q: What about the “Mean value of OS” value ((C) PS 0 and 1, with peritoneal metastasis, 4 cases) of the same substance?
A: 139 days and 139 (4) days

Q: What about the “Mean value of OS” value ((C) PS 0 and 1, without peritoneal metastasis, 3 cases) of the same substance?
A: 273 days and 273 (3) days

Q: And the “Mean value of OS” value ((D) PS 2 and 3, with peritoneal metastasis, 4 cases)?
A: 37.8 days and 37.8 (4) days

Q: What about the “Mean value of OS” value ((D) PS 2 and 3, without peritoneal metastasis, 2 cases) of the same substance?
A: 56.3 days and 56.3 (2) days

Q: And the “OS without versus with peritoneal metastasis” value (from here on “OS without versus”) (all 13 propagermanium patient cases)?
A: significant life prolongation effect

Q: What about the “Mean value of OS” value (all patients, with peritoneal metastasis, 8 cases) of the same substance?
A: 81.1 days and 81.1 (8) days

Q: And the “Mean value of OS” value (all patients, without peritoneal metastasis, 5 cases)?
A: 164.7 days and 164.7 (5) days

Q: What about the OS (patient P-1, PS 2) of the same substance?
A: 76 days

Q: And the PFS (patient P-1, PS 2)?
A: 56 days

Q: And the OS (patient P-2, PS 3)?
A: 34 days

Q: What about the PFS (patient P-2, PS 3) of the same substance?
A: 3 days

Q: What about the OS (patient P-3, PS 0) of the same substance?
A: 344 days

Q: What about the PFS (patient P-3, PS 0) of the same substance?
A: 336 days

Q: What about the OS (patient P-4, PS 2) of the same substance?
A: 72 days

Q: And the PFS (patient P-4, PS 2)?
A: 28 days

Q: What about the “Lesion site of lung (lung metastasis), imaging (FIG. 5)” value (patient P-5, 357th day after starting administration) of the same substance?
A: scar was formed

Q: What about the PFS (patient P-5, PS 1) of the same substance?
A: 392 days

Q: What about the “Lesion site of lung (lung metastasis), imaging (FIG. 5)” value (patient P-5, from the 35th day after starting administration) of the same substance?
A: reduction was observed

Q: And the OS (patient P-6, PS 3)?
A: 36 days

Q: And the PFS (patient P-6, PS 3)?
A: 22 days

Q: And the OS (patient P-7, PS 0)?
A: 83 days

Q: And the PFS (patient P-7, PS 0)?
A: 49 days

Q: And the OS (patient P-8, PS 1)?
A: 73 days

Q: What about the PFS (patient P-8, PS 1) of the same substance?
A: 73 days

Q: What about the OS (patient P-9, PS 3) of the same substance?
A: 30 days

Q: And the PFS (patient P-9, PS 3)?
A: 21 days

Q: What about the OS (patient P-10, PS 2) of the same substance?
A: 11 days

Q: And the PFS (patient P-10, PS 2)?
A: 7 days

Q: And the OS (patient P-11, PS 0)?
A: 163 days

Q: And the PFS (patient P-11, PS 0)?
A: 159 days

Q: What about the OS (patient P-12, PS 1) of the same substance?
A: 181 days

Q: And the PFS (patient P-12, PS 1)?
A: 178 days

Q: And the OS (patient P-13, PS 1)?
A: 61 days

Q: And the PFS (patient P-13, PS 1)?
A: 36 days

Q: What about the “Kaplan Meier survival curve of OS versus BSC (FIG. 2)” value (patient group PS (A) 0 and 1) of the same substance?
A: significant life prolongation effect

Q: And the “Survival time extension compared to BSC examples” value (patient group PS (A) 0 and 1)?
A: approximately 7 times

Q: And the “Median of OS” value (patient group PS (A) 0 and 1, BSC examples 23.5 days)?
A: 163 days

Q: What about the “Median of OS” value (patient group PS (B) 2 and 3, BSC examples 22 days) of the same substance?
A: 35 days

Q: And the “Kaplan Meier survival curve of OS versus BSC (FIG. 3)” value (patient group PS (B) 2 and 3, significant difference not confirmed)?
A: tendency to prolong life

Q: What about the “OS without versus” value (patient group PS (C) 0 and 1) of the same substance?
A: significant life prolongation effect

Q: And the “OS without versus” value (patient group PS (D) 2 and 3, significant difference not confirmed)?
A: tendency to prolong life
